Measurements reported in paper PMC11356900, “Synthesis, Structural Properties and Biological Activities of Novel Hydrazones of 2-, 3-, 4-Iodobenzoic Acid” (Molecules, 2024).
Converted amounts (≈) assume the structure as drawn.

Assays:
[1] = test system: Staphylococcus aureus ATCC 29213; experiment: Broth microdilution MIC/MBC; conditions: ATCC29213
[2] = test system: Salmonella typhimurium ATCC 14028; experiment: Broth microdilution MIC/MBC; conditions: Salmonella enterica
L929 cell line = experiment: MTT cytotoxicity assay; type: cell-based, mouse
Method: (§1) Among all the newly synthesized compounds, four compounds designated as: 14, 20, 21 and 27 were selected for further testing of their cytotoxic properties at the doses of 10, 25, 50, 75 and 100 µM. The cytotoxic properties of the above compounds were tested on the cancer cell lines, i.e., A549 (ECACC 86012804) (non-small-cell lung cancer), T47D (ECACC 85102201) (breast cancer), HeLa (ATCC® CCL-2™) (cervical cancer) and normal line L929 (NCTC clone 929, ATCC® CCL-1™) (mouse fibroblasts) using the MTT test for 24- and 48 h cultures.
(§2) A549 (ECACC 86012804) (non-small-cell lung cancer) and T47D (ECACC 85102201) (breast cancer) were obtained from ECACC and propagated in Dulbecco’s Minimal Essential Medium, supplemented with 2 mM of glutamine, antibiotics ([…] streptomycin, 1% of 100 U/L penicillin) and 10% Fetal Bovine Serum. HeLa (ATCC® CCL-2™) (cervical cancer) and L929 (NCTC clone 929, ATCC® CCL-1™) (mouse fibroblasts) cell lines were obtained from ATCC and propagated in the Eagle Minimal Essential Medium supplemented with antibiotics ([…] streptomycin, 1% of 100 U/L penicillin) and with 10% and 5% FBS, respectively. The cell line was routinely grown in 75 cm^2 tissue culture flasks and kept in an incubator (humidified atmosphere of 5% CO2 at 37 °C). All examined cell lines were tested against mycoplasma contamination with microbiological assays.
(§3) The cell viability of tested compounds (14, 20, 21 and 27) was assessed by the MTT assay. In brief, the exponentially growing cells were plated in 100 μL/well in 96-well plates. After 24 h culturing, the cells were treated with different concentrations of compounds (range 10–100 μM). After 24 and 48 h of incubation, 10 μL of 5 mg/mL MTT was added to each well and the plates were incubated at 37 °C for additional 4 h. The medium was subsequently removed, the purple-colored precipitates of formazan were dissolved in 100 μL of DMSO. The color absorbance was recorded at 570 nm using a BioTek model EPOCH ELISA plate reader. All experiments were performed in triplicate. The absorbance values were in the range of linearity of the Lambert–Beer law.

[3] = test system: Bacillus cereus ATCC 10876; experiment: Broth microdilution MIC/MBC; conditions: Bacillus cereus, ATCC10876
[4] = test system: Micrococcus luteus ATCC 10240; experiment: Broth microdilution MIC/MBC; conditions: Micrococcus luteus, ATCC10240
[5] = test system: Staphylococcus aureus ATCC 43300; experiment: Broth microdilution MIC/MBC; conditions: ATCC43300 / MRSA
HeLa cell line = experiment: MTT cytotoxicity assay; type: cell-based
Method: as §1, §2, §3

A549 cell line = experiment: MTT cytotoxicity assay; type: cell-based
Method: as §1, §2, §3

T47D cell line = experiment: MTT cytotoxicity assay; type: cell-based
Method: as §1, §2, §3

[6] = test system: Staphylococcus epidermidis ATCC 12228; experiment: Broth microdilution MIC/MBC; conditions: ATCC12228

## O=C(N/N=C/c1cc(Br)cc(Br)c1O)c1cccc(I)c1 [Compound 21, N-[(3,5-dibromo-2-hydroxyphenyl)methylidene]-3-iodobenzohydrazide]
[1]
  MBC: 15.6 µg/mL (≈ 29.8 µM)
  MIC: 15.6 µg/mL (≈ 29.8 µM)
[2]
  MIC: > 1000 µg/mL
L929 cell line; L929, 24h, 10 µM, Repeat No 1
  cell proliferation: 96%
L929 cell line; L929, 24h, 10 µM, Repeat No 2
  cell proliferation: 102%
L929 cell line; L929, 24h, 25 µM, Repeat No 1
  cell proliferation: 101%
L929 cell line; L929, 24h, 25 µM, Repeat No 2
  cell proliferation: 97%
L929 cell line; L929, 24h, 50 µM, Repeat No 1
  cell proliferation: 100%
L929 cell line; L929, 24h, 50 µM, Repeat No 2
  cell proliferation: 106%
L929 cell line; L929, 24h, 75 µM, Repeat No 1
  cell proliferation: 118%
L929 cell line; L929, 24h, 75 µM, Repeat No 2
  cell proliferation: 109%
L929 cell line; L929, 24h, 100 µM, Repeat No 1
  cell proliferation: 89%
L929 cell line; L929, 24h, 100 µM, Repeat No 2
  cell proliferation: 96%
L929 cell line; L929, 24 h culture, tested doses 10–100 µM
  cytotoxicity: approximately 20%
L929 cell line; L929, 48h, 10 µM, Repeat No 1
  cell proliferation: 94%
L929 cell line; L929, 48h, 10 µM, Repeat No 2
  cell proliferation: 98%
L929 cell line; L929, 48h, 25 µM, Repeat No 1
  cell proliferation: 89%
L929 cell line; L929, 48h, 25 µM, Repeat No 2
  cell proliferation: 97%
L929 cell line; L929, 48h, 50 µM, Repeat No 1
  cell proliferation: 89%
L929 cell line; L929, 48h, 50 µM, Repeat No 2
  cell proliferation: 88%
L929 cell line; L929, 48h, 75 µM, Repeat No 1
  cell proliferation: 104%
L929 cell line; L929, 48h, 75 µM, Repeat No 2
  cell proliferation: 96%
L929 cell line; L929, 48h, 100 µM, Repeat No 1
  cell proliferation: 89%
L929 cell line; L929, 48h, 100 µM, Repeat No 2
  cell proliferation: 84%
[3]
  MBC: 62.5 µg/mL (≈ 119 µM)
  MIC: 15.6 µg/mL (≈ 29.8 µM)
[4]
  MBC: 15.6 µg/mL (≈ 29.8 µM)
  MIC: 3.91 µg/mL (≈ 7.46 µM)
[5]
  MBC: 62.5 µg/mL (≈ 119 µM)
  MIC: 15.6 µg/mL (≈ 29.8 µM)
HeLa cell line; 24h, 10 µM, Repeat No 1
  cell proliferation: 89%
HeLa cell line; 24h, 10 µM, Repeat No 2
  cell proliferation: 88%
HeLa cell line; 24h, 25 µM, Repeat No 1
  cell proliferation: 89%
HeLa cell line; 24h, 25 µM, Repeat No 2
  cell proliferation: 92%
HeLa cell line; 24h, 50 µM, Repeat No 1
  cell proliferation: 86%
HeLa cell line; 24h, 50 µM, Repeat No 2
  cell proliferation: 104%
HeLa cell line; 24h, 75 µM, Repeat No 1
  cell proliferation: 104%
HeLa cell line; 24h, 75 µM, Repeat No 2
  cell proliferation: 87%
HeLa cell line; 24h, 100 µM, Repeat No 1
  cell proliferation: 87%
HeLa cell line; 24h, 100 µM, Repeat No 2
  cell proliferation: 91%
HeLa cell line; 48h, 10 µM, Repeat No 1
  cell proliferation: 86%
HeLa cell line; 48h, 10 µM, Repeat No 2
  cell proliferation: 93%
HeLa cell line; 48h, 25 µM, Repeat No 1
  cell proliferation: 101%
HeLa cell line; 48h, 25 µM, Repeat No 2
  cell proliferation: 97%
HeLa cell line; 48h, 50 µM, Repeat No 1
  cell proliferation: 81%
HeLa cell line; 48h, 50 µM, Repeat No 2
  cell proliferation: 87%
HeLa cell line; 48h, 75 µM, Repeat No 1
  cell proliferation: 91%
HeLa cell line; 48h, 75 µM, Repeat No 2
  cell proliferation: 89%
HeLa cell line; 48h, 100 µM, Repeat No 1
  cell proliferation: 88%
HeLa cell line; 48h, 100 µM, Repeat No 2
  cell proliferation: 92%
A549 cell line; A549, 24h, 10 µM, Repeat No 1
  cell proliferation: 88%
A549 cell line; A549, 24h, 10 µM, Repeat No 2
  cell proliferation: 99%
A549 cell line; A549, 24h, 25 µM, Repeat No 1
  cell proliferation: 88%
A549 cell line; A549, 24h, 25 µM, Repeat No 2
  cell proliferation: 88%
A549 cell line; A549, 24h, 50 µM, Repeat No 1
  cell proliferation: 92%
A549 cell line; A549, 24h, 50 µM, Repeat No 2
  cell proliferation: 101%
A549 cell line; A549, 24h, 75 µM, Repeat No 1
  cell proliferation: 103%
A549 cell line; A549, 24h, 75 µM, Repeat No 2
  cell proliferation: 99%
A549 cell line; A549, 24h, 100 µM, Repeat No 1
  cell proliferation: 87%
A549 cell line; A549, 24h, 100 µM, Repeat No 2
  cell proliferation: 94%
A549 cell line; A549, 48h, 10 µM, Repeat No 1
  cell proliferation: 92%
A549 cell line; A549, 48h, 10 µM, Repeat No 2
  cell proliferation: 99%
A549 cell line; A549, 48h, 25 µM, Repeat No 1
  cell proliferation: 94%
A549 cell line; A549, 48h, 25 µM, Repeat No 2
  cell proliferation: 91%
A549 cell line; A549, 48h, 50 µM, Repeat No 1
  cell proliferation: 97%
A549 cell line; A549, 48h, 50 µM, Repeat No 2
  cell proliferation: 91%
A549 cell line; A549, 48h, 75 µM, Repeat No 1
  cell proliferation: 83%
A549 cell line; A549, 48h, 75 µM, Repeat No 2
  cell proliferation: 87%
A549 cell line; A549, 48h, 100 µM, Repeat No 1
  cell proliferation: 91%
A549 cell line; A549, 48h, 100 µM, Repeat No 2
  cell proliferation: 87%
T47D cell line; 24h, 10 µM, Repeat No 1
  cell proliferation: 82%
T47D cell line; 24h, 10 µM, Repeat No 2
  cell proliferation: 84%
T47D cell line; 24h, 25 µM, Repeat No 1
  cell proliferation: 83%
T47D cell line; 24h, 25 µM, Repeat No 2
  cell proliferation: 88%
T47D cell line; 24h, 50 µM, Repeat No 1
  cell proliferation: 78%
T47D cell line; 24h, 50 µM, Repeat No 2
  cell proliferation: 76%
T47D cell line; 24h, 75 µM, Repeat No 1
  cell proliferation: 71%
T47D cell line; 24h, 75 µM, Repeat No 2
  cell proliferation: 79%
T47D cell line; 24h, 100 µM, Repeat No 1
  cell proliferation: 73%
T47D cell line; 24h, 100 µM, Repeat No 2
  cell proliferation: 78%
T47D cell line; 48h, 10 µM, Repeat No 1
  cell proliferation: 79%
T47D cell line; 48h, 10 µM, Repeat No 2
  cell proliferation: 71%
T47D cell line; 48h, 25 µM, Repeat No 1
  cell proliferation: 79%
T47D cell line; 48h, 25 µM, Repeat No 2
  cell proliferation: 81%
T47D cell line; 48h, 50 µM, Repeat No 1
  cell proliferation: 81%
T47D cell line; 48h, 50 µM, Repeat No 2
  cell proliferation: 79%
T47D cell line; 48h, 75 µM, Repeat No 1
  cell proliferation: 69%
T47D cell line; 48h, 75 µM, Repeat No 2
  cell proliferation: 74%
T47D cell line; 48h, 100 µM, Repeat No 1
  cell proliferation: 78%
T47D cell line; 48h, 100 µM, Repeat No 2
  cell proliferation: 71%
[6]
  MBC: 31.2 µg/mL (≈ 59.6 µM)
  MIC: 7.81 µg/mL (≈ 14.9 µM)
